Patent US8541649B2, “Brassinosteroid regulated kinases (BRKs) that mediate brassinosteroid signal transduction and uses thereof” (priority 2008, dated 2013)

Experiments:
[1] = target: T1, BRI1-GFP and BRK1-myc (Arabidopsis thaliana, UniProt O22476); assay: Co-immunoprecipitation of BRI1 with BRK1; assay type: in vivo; conditions: 100 nM brassinolide for 30 min; microsomal proteins immunoprecipitated with anti-GFP antibodies; plants co-expressing BRK1-myc and BRI1-GFP (FIG. 2D)
T1 construct: expressed in transfected cells; host or cells: transgenic Arabidopsis plants (rosette leaves, microsomal fraction)
T1 sequence (O22476 24-1196): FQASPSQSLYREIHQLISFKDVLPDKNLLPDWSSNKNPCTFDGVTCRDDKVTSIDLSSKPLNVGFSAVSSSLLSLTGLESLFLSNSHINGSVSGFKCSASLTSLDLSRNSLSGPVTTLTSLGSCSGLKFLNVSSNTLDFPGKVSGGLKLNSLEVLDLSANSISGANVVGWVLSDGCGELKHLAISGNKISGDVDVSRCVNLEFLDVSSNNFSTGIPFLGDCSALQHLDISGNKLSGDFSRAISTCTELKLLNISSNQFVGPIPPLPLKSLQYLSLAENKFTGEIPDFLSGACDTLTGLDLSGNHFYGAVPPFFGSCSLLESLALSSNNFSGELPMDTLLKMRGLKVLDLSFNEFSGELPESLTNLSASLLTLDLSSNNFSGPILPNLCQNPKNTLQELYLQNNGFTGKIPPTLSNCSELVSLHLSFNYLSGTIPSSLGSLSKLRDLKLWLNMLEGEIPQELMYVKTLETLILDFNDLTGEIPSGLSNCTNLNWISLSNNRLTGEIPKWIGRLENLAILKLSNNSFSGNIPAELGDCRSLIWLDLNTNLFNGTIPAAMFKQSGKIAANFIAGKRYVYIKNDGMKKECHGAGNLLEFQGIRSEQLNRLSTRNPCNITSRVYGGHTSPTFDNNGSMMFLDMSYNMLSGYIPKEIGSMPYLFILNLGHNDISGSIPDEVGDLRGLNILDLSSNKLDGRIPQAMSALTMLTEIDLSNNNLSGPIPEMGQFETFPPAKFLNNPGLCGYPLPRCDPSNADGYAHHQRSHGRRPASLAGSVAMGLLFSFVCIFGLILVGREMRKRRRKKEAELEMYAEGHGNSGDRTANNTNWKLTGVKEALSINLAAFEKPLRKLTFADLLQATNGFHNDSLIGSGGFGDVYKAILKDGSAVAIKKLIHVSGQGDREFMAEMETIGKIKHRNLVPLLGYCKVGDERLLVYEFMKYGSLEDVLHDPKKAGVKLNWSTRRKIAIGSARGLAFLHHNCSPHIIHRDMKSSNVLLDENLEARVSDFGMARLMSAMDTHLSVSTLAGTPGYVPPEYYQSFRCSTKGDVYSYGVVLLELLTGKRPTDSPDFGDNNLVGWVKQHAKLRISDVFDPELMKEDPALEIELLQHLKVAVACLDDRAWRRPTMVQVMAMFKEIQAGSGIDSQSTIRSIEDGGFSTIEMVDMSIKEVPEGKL
T1 sequence (Q94F62 26-615 partner): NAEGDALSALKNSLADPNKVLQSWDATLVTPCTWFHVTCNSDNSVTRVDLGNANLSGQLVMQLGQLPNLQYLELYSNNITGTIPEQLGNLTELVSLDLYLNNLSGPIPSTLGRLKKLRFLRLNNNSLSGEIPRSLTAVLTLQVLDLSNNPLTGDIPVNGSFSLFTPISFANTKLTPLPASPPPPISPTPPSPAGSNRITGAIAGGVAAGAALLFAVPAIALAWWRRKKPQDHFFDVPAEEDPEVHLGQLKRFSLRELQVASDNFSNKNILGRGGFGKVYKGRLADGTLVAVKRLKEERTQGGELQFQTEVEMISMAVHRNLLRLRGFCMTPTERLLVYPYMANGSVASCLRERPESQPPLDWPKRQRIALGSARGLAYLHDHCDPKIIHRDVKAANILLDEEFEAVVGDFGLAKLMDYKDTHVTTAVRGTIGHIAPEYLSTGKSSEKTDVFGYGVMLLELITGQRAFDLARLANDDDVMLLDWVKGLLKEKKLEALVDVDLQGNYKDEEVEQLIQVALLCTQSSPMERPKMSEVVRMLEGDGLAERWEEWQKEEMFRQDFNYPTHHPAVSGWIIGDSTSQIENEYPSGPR
Method: FIGS. 2A-2D show BRK1 is a substrate of BRI1. FIGS. 2A and 2B show BRI1 phosphorylates serine230 of BRK1 in vitro. […] YFP fluorescence images of N. benthamiana leaf epidermal cells co-transformed with the indicated constructs. […] Arabidopsis plants expressing BRK1-myc only (lanes 1 and 4) or co-expressing BRK1-myc and BRI1-GFP (lanes 2, 3, 5, 6) were treated with 100 nM brassinolide (BL+) or mock solution (BL−) for 30 min. Microsomal proteins (lanes 1 to 3) were immunprecipitated with anti-GFP antibodies (lanes 4 to 6), and the immunoblot was probed using anti-GFP antibodies or anti-myc antibodies.
All procedures were performed at 4° C. Rosette leaves of 3-week-old Arabidopsis plants were homogenized with mortar and pestle in the grinding buffer (20 mM HEPES, pH 7.5, 40 mM KCl, 250 mM sucrose, 5 mM MgCl2 and protein inhibitors) at a ratio of 3 mL buffer per gram of tissue. Homogenate was filtered through 2 layers of Miracloth (CalBiochem, La Jolla, Calif.), and centrifuged at 10,000 g for 10 minutes. The supernatant was further centrifuged at 100,000 g for 60 min to pellet the microsomal fraction. Microsomes were re-suspended in 0.5 mL grinding buffer and sonicated for 10 sec. Triton X-100 was added to a final concentration of 1%. After mixing, the extracts were centrifuged at 20,000 g for 10 min. […] Samples were analyzed by SDS-PAGE and immunoblotting.

[2] = system: wild type plants; assay: Hypocotyl and root growth assay; assay type: in vivo, Arabidopsis thaliana; conditions: wild type plants grown in the light
Method: The det2-1 and bzr1-1D mutants are in Arabidopsis thaliana Columbia ecotype background, and bri1-5 is in the WS ecotype. For hypocotyl and root growth assay, seedlings were grown on vertical phytoagar plate containing ^1/2 MS medium and 1% sucrose (pH 5.7) in the dark for 4 days or under continuous light for 7 days. Confocal microscopy and BiFC analysis were performed according to Gampala et al. (Gampala et al., Dev Cell 13, 177 (August, 2007)).
Arabidopsis seeds were surface sterilized by first soaking in 70% ethanol plus 0.1% Triton X-100 for 15 min followed by soaking in 96% ethanol for another 10 mins. Sterilized seeds were air dried in the hood and sowed on agar plate of Murashige and Skoog (MS) medium or MS plate plus BRZ or Brassinolide. The seeds were incubated at 4° C. for 3 days to synchronize germination and then grown for 4 days in dark or 7 days under continuous light before taking pictures for measurement. For measurement of hypocotyls or root growth, the plates were first scanned using a image scanner at a resolution of 300 dpi, and the images were input into computer software Image J to measure the root or hypocotyl length.

What does the source list for `CC(C)[C@H](C)[C@@H](O)[C@H](O)[C@@H](C)[C@H]1CC[C@H]2[C@@H]3COC(=O)[C@H]4C[C@H](O)[C@H](O)C[C@]4(C)[C@H]3CC[C@]12C` [Brassinolide]?
amount of the co-immunoprecipitated BRK1-myc [1]: 46 % of the untreated sample; hypocotyl elongation [2]: increases hypocotyl elongation; root growth [2]: inhibits root growth
